# Assay results taken from the supplement of paper PMC10307832.
# Columns and labels:
# Assay in all cases: relative viability (nuclei count vs DMSO), 5 days (fraction); higher = more cells survive
# [1] = compound: C1=CC2=C(C=C(C(=C2N=C1)O)N=NC3=CC4=C(C=C3)C=C(C=C4)S(=O)(=O)O)S(=O)(=O)O + Nc1nc2[nH]cc(CCc3ccc(C(=O)N[C@@H](CCC(=O)O)C(=O)O)cc3)c2c(=O)[nH]1 [Pemetrexed] (partner 0.2 µM)
# Summary of the method: (§1)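 Lung cancer cell lines in 1536-well plates were dosed by pin tool the day after seeding, either with one drug alone or with a fixed anchor-drug dose plus five library-drug doses (not always all listed) in √10 steps. After 5 days, cells were fixed and their nuclei stained in one step (final 0.05% Triton X-100, 1% formaldehyde, 1 ug/ml Hoechst), then counted on 4× images. Relative viability is the nuclei count in treated wells divided by that in vehicle wells. Values are medians of duplicate plates.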
# AT-7519 + Lapatinib = compound: O=C(NC1CCNCC1)c1n[nH]cc1NC(=O)c1c(Cl)cccc1Cl [AT-7519] + CS(=O)(=O)CCNCc1ccc(-c2ccc3ncnc(Nc4ccc(OCc5cccc(F)c5)c(Cl)c4)c3c2)o1 [Lapatinib] (partner 2 µM)
# Summary of the method: as §1
# [2] = compound: C1=CC2=C(C=C(C(=C2N=C1)O)N=NC3=CC4=C(C=C3)C=C(C=C4)S(=O)(=O)O)S(=O)(=O)O + Cc1nc(Nc2ncc(C(=O)Nc3c(C)cccc3Cl)s2)cc(N2CCN(CCO)CC2)n1 [Dasatinib] (partner 0.075 µM)
# Summary of the method: as §1
# [3] = compound: C1=CC2=C(C=C(C(=C2N=C1)O)N=NC3=CC4=C(C=C3)C=C(C=C4)S(=O)(=O)O)S(=O)(=O)O + C[C@]1(O)C[C@@H](c2nc(-c3ccc4ccc(-c5ccccc5)nc4c3)c3c(N)nccn32)C1 [Linsitinib] (partner 1 µM)
# Summary of the method: as §1
Cell Line,relative viability ([1]; first compound 0.253 µM),relative viability ([1]; first compound 8 µM),relative viability (AT-7519 + Lapatinib; first compound 0.01 µM),relative viability (AT-7519 + Lapatinib; first compound 0.03162 µM),relative viability (AT-7519 + Lapatinib; first compound 0.3162 µM),relative viability (AT-7519 + Lapatinib; first compound 1 µM),relative viability ([2]; first compound 0.08 µM),relative viability ([2]; first compound 0.253 µM),relative viability ([2]; first compound 0.8 µM),relative viability ([2]; first compound 2.53 µM),relative viability ([2]; first compound 8 µM),relative viability ([1]; first compound 0.08 µM),relative viability ([1]; first compound 0.8 µM),relative viability ([1]; first compound 2.53 µM),relative viability ([3]; first compound 0.08 µM),relative viability ([3]; first compound 0.253 µM),relative viability ([3]; first compound 0.8 µM),relative viability ([3]; first compound 2.53 µM),relative viability ([3]; first compound 8 µM)
NCI-H1648,0.695,0.855,–,–,–,–,–,–,–,–,–,–,–,–,–,–,–,–,–
SK-MES-1,0.953,0.882,0.455,0.468,0.451,0.392,0.43,0.35,0.353,0.531,0.477,0.972,0.932,0.942,1.17,1.01,1.05,1.04,1.06
HCC-366,0.14,0.163,0.868,1.08,0.797,0.243,0.765,0.661,0.654,0.649,0.637,0.162,0.157,0.145,0.557,0.578,0.678,0.603,0.648
201T,0.319,0.354,1.06,1.03,1.07,1.06,0.627,0.56,0.584,0.619,0.677,0.324,0.341,0.332,1.05,1.01,1,1.05,1.07
HCC-827,0.21,0.246,0.21,0.165,0.162,0.157,0.306,0.294,0.244,0.261,0.272,0.269,0.296,0.224,1.01,0.912,0.934,0.935,0.927
NCI-H647,0.189,0.168,1.02,1,0.937,0.291,0.212,0.169,0.151,0.143,0.194,0.174,0.182,0.183,1.18,1.16,1.25,1.09,1.03
NCI-H2023,0.223,0.14,0.911,0.755,0.504,0.177,0.689,0.622,0.558,0.648,0.541,0.205,0.265,0.256,0.675,0.593,0.69,0.675,0.653
NCI-H520,0.706,0.692,0.922,0.638,0.587,0.283,0.185,0.206,0.204,0.157,0.176,0.696,0.637,0.715,1.1,1.12,1.07,0.968,1.01
RERF-LC-KJ,0.483,0.457,0.847,0.922,0.86,0.851,0.803,0.965,0.943,0.958,0.888,0.488,0.464,0.463,0.945,0.954,0.888,0.979,0.87
A-427,1.02,0.996,1.1,0.989,1.03,0.929,0.68,0.634,0.64,0.775,0.751,0.996,0.929,1.07,1.18,1.07,1.08,1.07,1.11
NCI-H441,0.27,0.297,–,–,–,–,0.574,0.587,0.568,0.59,0.679,0.251,0.246,0.26,0.51,0.527,0.458,0.551,0.354
NCI-H1703,–,–,1.03,0.955,0.821,0.206,–,–,–,–,–,–,–,–,0.865,–,0.821,0.371,0.959
NCI-H1792,0.764,0.897,0.673,0.845,0.98,0.94,0.772,0.669,0.458,0.84,0.835,1.02,0.821,0.821,0.667,0.48,0.619,0.592,0.565
Calu-6,–,–,1.12,1.07,0.988,0.18,–,–,–,–,–,–,–,–,1.08,0.976,0.911,0.926,0.969
SK-LU-1,0.937,1.01,0.726,0.943,0.766,0.506,0.2,0.177,0.212,0.167,0.172,1.04,0.956,0.954,1.38,1.13,1.14,1.14,1.03
PC-3 [JPC-3],1.03,0.999,0.529,0.441,0.416,0.52,1.11,0.98,1.03,1.05,1,1.07,1.04,1.16,0.998,0.93,0.94,0.965,0.97
EMC-BAC-2,0.433,0.421,0.866,0.85,0.889,0.886,0.324,0.401,0.336,0.36,0.367,0.417,0.433,0.458,0.912,0.821,0.825,0.823,0.8
LK-2,0.224,0.283,0.816,0.951,0.706,0.706,0.357,0.33,0.204,0.33,0.239,0.312,0.212,0.269,0.797,0.724,0.551,0.573,0.472
NCI-H2126,0.641,0.75,0.804,0.752,0.683,0.857,0.711,0.645,0.64,0.713,0.693,0.671,0.689,0.723,0.72,0.688,0.718,0.752,0.731
NCI-H3122,0.201,0.182,1.02,0.986,1.08,0.701,0.954,0.741,0.716,0.882,0.0807,0.194,0.202,0.189,0.998,0.962,0.969,1.01,0.96
NCI-H1975,0.297,0.303,0.861,0.817,0.447,0.158,0.388,0.356,0.343,0.4,0.388,0.315,0.302,0.29,1.02,0.913,0.92,0.918,0.908

Cell Line,relative viability ([1]; first compound 0.253 µM),relative viability ([1]; first compound 8 µM),relative viability (AT-7519 + Lapatinib; first compound 0.01 µM),relative viability (AT-7519 + Lapatinib; first compound 0.03162 µM),relative viability (AT-7519 + Lapatinib; first compound 0.3162 µM),relative viability (AT-7519 + Lapatinib; first compound 1 µM),relative viability ([2]; first compound 0.08 µM),relative viability ([2]; first compound 0.253 µM),relative viability ([2]; first compound 0.8 µM),relative viability ([2]; first compound 2.53 µM),relative viability ([2]; first compound 8 µM),relative viability ([1]; first compound 0.08 µM),relative viability ([1]; first compound 0.8 µM),relative viability ([1]; first compound 2.53 µM),relative viability ([3]; first compound 0.08 µM),relative viability ([3]; first compound 0.253 µM),relative viability ([3]; first compound 0.8 µM),relative viability ([3]; first compound 2.53 µM),relative viability ([3]; first compound 8 µM)
NCI-H1944,0.559,0.395,0.807,0.775,0.84,0.864,0.222,0.244,0.201,0.212,0.206,0.61,0.57,0.634,1.21,1.15,1.24,1.17,1.25
LU99A,0.401,0.19,1.02,1.07,0.898,0.41,0.496,0.496,0.474,0.555,0.514,0.161,0.183,0.181,0.613,0.559,0.552,0.528,0.522
SW 1573,0.817,0.257,1.08,1.18,1.07,0.569,0.545,0.572,0.417,0.513,0.273,0.881,0.78,0.838,0.779,0.734,0.816,0.875,0.75
NCI-H2347,0.474,0.343,1.04,1.06,0.989,0.935,0.317,0.316,0.333,0.343,0.247,0.44,0.444,0.403,1.01,0.894,0.881,1.03,1.03
NCI-H2009,1.05,0.988,1.09,0.825,0.66,0.277,0.261,0.275,0.288,0.313,0.283,1.07,0.89,1.04,1.21,1.07,1.21,1.2,1.19
HCC-44,0.692,0.728,0.984,1.05,1.1,0.979,–,–,–,–,–,0.703,0.649,0.675,0.708,0.66,0.664,0.702,0.698
NCI-H1299,–,–,0.994,0.977,0.975,0.58,–,–,–,–,–,–,–,–,1.04,0.98,0.937,0.955,0.986
NCI-H727,–,–,0.641,0.82,0.486,0.235,0.454,0.39,0.352,0.412,0.345,–,–,–,0.223,0.287,0.371,0.32,0.269
LCLC-103H,0.459,0.453,–,–,–,–,0.537,0.461,0.505,0.458,0.48,0.505,0.493,0.439,1.2,1.04,1,1.15,1.09
ABC-1,–,–,0.984,0.909,0.986,0.966,0.568,–,–,0.713,0.421,–,–,–,0.8,0.632,0.86,0.688,0.738
NCI-H1650,0.346,0.4,0.781,0.782,0.555,0.21,0.34,0.315,0.338,0.332,0.227,0.433,0.368,0.389,–,–,–,–,–
ChaGo-K-1,0.257,0.242,–,–,–,–,0.648,0.595,0.599,0.481,0.335,0.256,0.272,0.256,–,–,–,–,–
SW 900,0.49,0.481,–,–,–,–,0.596,0.668,0.619,0.52,0.743,0.479,0.468,0.531,–,–,–,–,–
A549,–,–,0.879,1.01,0.856,0.349,–,–,–,–,–,–,–,–,0.7,0.515,0.617,0.645,0.576
NCI-H2342,0.791,0.765,–,–,–,–,0.297,0.307,0.286,0.308,0.348,0.82,0.766,0.807,–,–,–,–,–
NCI-H2170,0.281,0.251,0.289,0.305,0.278,0.249,0.636,0.574,0.659,0.633,0.55,0.288,0.284,0.266,–,–,–,–,–
NCI-H1623,–,–,–,–,–,–,0.465,0.519,0.575,0.547,0.251,–,–,–,–,–,–,–,–
NCI-H522,1.03,1.09,–,–,–,–,0.91,0.92,0.746,0.788,1.03,0.949,1.04,0.971,–,–,–,–,–
IA-LM,–,–,0.911,0.821,0.658,0.0627,–,–,–,–,–,–,–,–,0.822,0.68,0.472,0.755,0.568
EBC-1,–,–,0.234,0.2,0.213,0.178,–,–,–,–,–,–,–,–,1.04,0.878,0.796,0.945,0.915
